Data from paper PMC7662393, “Comprehensive Characterization of Linalool-HP-β-Cyclodextrin Inclusion Complexes” (Molecules, 2020).
Values after ≈ are worked out from the molar mass of the structure shown. Like-named read-outs stand apart in the source and are kept apart here.

Assays:
[1] = parameters: method as in PMID 25298799; details: HP-β-CDs; cited from earlier work
[2] = parameters: method as in PMID 25298799; details: RAMEB; cited from earlier work
[3] = parameters: method as in PMID 25298799; details: CRYSMEB; cited from earlier work
[4] = Aqueous solubility of linalool (S0) from phase solubility study, ultrasound equilibrium; type: physicochemical; details: for solubility at 60 min: read-out: Recovery aqueous solubility (S0)
Protocol: (§1) The study of linalool solubility in the presence of CDs was carried out according to the method described by Higuchi and Connors in 1965 with slight modifications. CDs were dissolved in buffered solutions at different pHs: 3.5, 5.5 (100 mmol L^−1 sodium acetate buffer), 6.5, 7.0 (100 mmol L^−1 sodium phosphate buffer) and 8.5 (100 mmol L^−1 sodium borate buffer). The α- and HP-β-CDs were prepared up to 100 mmol L^−1. However, β-CDs were prepared up to 15 mmol L^−1, since this is their limit of aqueous solubility.
(§2) A saturating concentration of linalool was added to each CDs solution and they were kept in an ultrasound bath for 60 min in the dark, at 25 °C, until equilibrium was reached. Subsequently, the solutions were filtered through a 0.45 µm nylon membrane filter (Chromafil, Macherey-Nagel, Düren, Germany) to remove excess linalool.
(§3) Once filtered, the solutions were diluted with ethanol until reach ethanol 80% (solution:ethanol, 20:80, v:v) to quantify by gas chromatography-mass spectrometry (GC-MS) the linalool concentration in each solution. Phase solubility diagrams were made in triplicate.
(§4) The quantification of linalool was carried out by using a Shimadzu GC-QP 2010 (Kyoto, Japan) gas chromatographer combined with a mass spectrometer. Helium was used as carrier gas, at a flow rate of 0.5 mL min^−1. A ω-WAX 250 fused silica supelco column (30 m × 0.25 mm × 0.25 µm thickness), was used. The temperature conditions were as follows: initial temperature at 70 °C, raised to 160 °C at 4 °C min^−1, raised to 280 °C at 30 °C min^−1, and maintained finally at 280 °C for 6 min. Injector temperature was 250 °C and injector mode was Split 1:20.
(§5) The peak area of each sample was used for linalool quantification (mmol L^−1), by interpolating in the calibration curve obtained using a standard of linalool, defined by equation: Area = […] [linalool (mmol L^−1)] and (R^2 = 0.9989) for linalool concentration from 0.0 to 0.5 mmol L^−1.

[5] = Phase solubility study of linalool complexation with α-CDs; type: physicochemical
Protocol: as §1, §2, §3, §4, §5
(§6) Kc between linalool and CDs was calculated from the slope of the phase solubility profile and the solubility of linalool in aqueous solution (S0) by using Equation (1):(1) Kc (Lmol^−1)=slope/S0(1−slope)
(§7) CE is the ratio between dissolved complex and free CDs concentration. […] was calculated by using Equation (2):(2) CE=[disolved−complex]/[CDs]=S0∗Kc
(§8) The molar ratio (MR) linalool:CDs, was calculated using CE values with Equation (3). (3) linalool:CDs=1:(1+1/CE)

[6] = Phase solubility study of linalool complexation with β-CDs; type: physicochemical
Protocol: as §1, §2, §3, §4, §5, §6, §7, §8

[7] = Phase solubility study of linalool complexation with HP-β-CDs (ultrasound); type: physicochemical
Protocol: as §1, §2, §3, §4, §5, §6, §7, §8

[8] = Phase solubility of linalool with HP-β-CDs by microwave irradiation (MWI); type: physicochemical; details: pH 7.0
Protocol: The encapsulation of linalool with HP-β-CDs by using MWI was carried out following the method described by Hernández-Sánchez et al. in 2017 [32]. Aqueous solutions of HP-β-CDs (100 mL, 0–100 mmol L^−1) were irradiated with microwave (LG Grill Wavedom, LG Electronics Las Rozas, Spain), at 700 W for 30 s, at 10 s intervals, until reaching a temperature of 70 °C in the solution. Later on, linalool was added to each aqueous solution, in a molar ratio of 1:1 and then, were irradiated again for 30 s at 10 s intervals, until reaching again 70 °C. Subsequently, the samples were shaken and kept for 12 h in dark sealed vials at 25 °C, before dividing them into two groups. After that, the first group, named 24 h MWI, was filtered using 0.45 µm nylon membrane filter (Chromafil, Macherey-Nagel). The second group, named 48 h MWI, were irradiated again, until reaching 70 °C, and maintain 12 h in the dark before they were filtered through a 0.45 µm nylon filter to remove linalool excess. Once filtered, both groups of samples were diluted with ethanol (20:80, v:v) until the GC-MS quantification of the linalool. All measurements were made in triplicate.
as §4, §5

[9] = parameters: method as in doi:10.1002/ffj.3197; details: JECFA (FAO/WHO); cited from earlier work
[10] = hydroxyl group at C3; no reference or method printed; cited from earlier work

SMILES: O=C(O)/C=C/c1ccc(O)cc1 [coumaric acid]
- Complexation efficiency (CE) [1]: 2.30
- Complexation efficiency (CE) [2]: 2.57
- Complexation efficiency (CE) [3]: 1.89

SMILES: C=CCc1ccc(O)c(OC)c1 [eugenol]
- Complexation efficiency (CE) [1]: 2.81

SMILES: COc1cc(/C=C/C(=O)O)ccc1O [ferulic acid]
- Complexation efficiency (CE) [2]: 1.79

SMILES: C=CC(C)(O)CCC=C(C)C (stereo not drawn) [linalool, 3,7-dimethyl-1,6-octadien-3-ol]
- solubility at 60 min ([4]; aqueous buffer, thermodynamic from solid, pH 6.5, 25 °C): 8.16 ± 0.11 mM (≈ 1260 µg/mL)
- solubility at 60 min ([4]; aqueous buffer, thermodynamic from solid, pH 7.0, 25 °C): 7.37 mM (≈ 1140 µg/mL)
- Recovery aqueous solubility (S0) ([4]; pH 3.5, 25 °C): 9.34 ± 0.20 mM
- solubility at 60 min ([4]; pH 5.5, 25 °C): 9.05 ± 0.16 mM (≈ 1400 µg/mL)
- Recovery aqueous solubility (S0) ([4]; pH 7.0, 25 °C): 7.37 ± 0.03 mM
- solubility at 60 min ([4]; pH 8.5, 25 °C): 9.33 ± 0.13 mM (≈ 1440 µg/mL)
- solubility at 60 min ([4]; sodium acetate buffer, pH 3.5, 25 °C): 9.34 mM (≈ 1440 µg/mL)
- Complexation efficiency (CE) ([5]; pH 3.5): 0.159
- Complexation constant (KC) ([5]; pH 3.5, 25 °C): 17 ± 6 L/mol
- Complexation efficiency (CE) ([5]; pH 5.5): 0.226
- Complexation constant (KC) ([5]; pH 5.5, 25 °C): 25 ± 4 L/mol
- Complexation efficiency (CE) ([5]; pH 6.5): 0.987
- Complexation constant (KC) ([5]; pH 6.5, 25 °C): 121 ± 9 L/mol
- Complexation efficiency (CE) ([5]; pH 7.0): 1.090
- Complexation constant (KC) ([5]; pH 7.0, 25 °C): 148 ± 12 L/mol
- Complexation efficiency (CE) ([5]; pH 8.5): 0.979
- Complexation constant (KC) ([5]; pH 8.5, 25 °C): 105 ± 8 L/mol
- Complexation efficiency (CE) ([6]; pH 3.5): 0.261
- Complexation constant (KC) ([6]; pH 3.5, 25 °C): 28 ± 4 L/mol
- Complexation efficiency (CE) ([6]; pH 5.5): 0.670
- Complexation constant (KC) ([6]; pH 5.5, 25 °C): 74 ± 5 L/mol
- Complexation efficiency (CE) ([6]; pH 6.5): 0.743
- Complexation constant (KC) ([6]; pH 6.5, 25 °C): 91 ± 4 L/mol
- Complexation efficiency (CE) ([6]; pH 7.0): 1.776
- Complexation constant (KC) ([6]; pH 7.0, 25 °C): 241 ± 26 L/mol
- Complexation efficiency (CE) ([6]; pH 8.5): 0.149
- Complexation constant (KC) ([6]; pH 8.5, 25 °C): 16 ± 5 L/mol
- Linalool concentration solved ([7]; 100 mM HP-β-CDs, US, pH 7.0): 96.72 mM
- Linalool concentration solved, US relative to MWI ([7]; 100 mM HP-β-CDs, pH 7.0): 7 fold
- Increase in solubility of linalool ([7]; HP-β-CDs, US as energy source, volume 100 mL, pH 7.0): 13.1 fold
- Complexation efficiency (CE) ([7]; HP-β-CDs, pH 3.5): 0.411
- Complexation constant (KC) ([7]; HP-β-CDs, pH 3.5, 25 °C): 44 ± 6 L/mol
- Complexation efficiency (CE) ([7]; HP-β-CDs, pH 5.5): 0.443
- Complexation constant (KC) ([7]; HP-β-CDs, pH 5.5, 25 °C): 49 ± 7 L/mol
- Complexation efficiency (CE) ([7]; HP-β-CDs, pH 6.5): 1.836
- Complexation constant (KC) ([7]; HP-β-CDs, pH 6.5, 25 °C): 225 ± 14 L/mol
- Complexation efficiency (CE) ([7]; HP-β-CDs, pH 7.0): 6.788
- Complexation constant (KC) ([7]; HP-β-CDs, pH 7.0, 25 °C): 921 ± 21 L/mol
- Complexation efficiency (CE) ([7]; HP-β-CDs, pH 8.5): 5.215
- Complexation constant (KC) ([7]; HP-β-CDs, pH 8.5, 25 °C): 559 ± 17 L/mol
- KC value for HP-β-CDs relative to that for β-CDs ([7]; neutral pH): 4 fold
- Linalool concentration solved ([8]; 100 mM HP-β-CDs, MWI): 13.61 mM
- Increase in solubility of linalool ([8]; HP-β-CDs, MWI as energy source, volume 100 mL): 18.2 fold
- solubility thermodynamic ([8]; aqueous solution without HP-β-CDs (S0), 25 °C, water, thermodynamic from solid, MWI): 0.75 mM (≈ 116 µg/mL)
- Allowable daily intake (ADI) [9]: 0–0.5 mg kg^−1 of body weight/day
- pKa [10]: 18.46
